This note sets out measurements from patent publication US20070244076A1, “Site and Rate Selective Prodrug Formulations of D609 with Antioxidant and Anticancer Activity” (priority 2003, published 2007).

The subject of series [1] is Jurkat T-cell leukemia cells. Nature of the series: MTT cell viability, Jurkat cells. The format is cell-based, human.
Series [2] has as its system STM91-01 malignant rhabdoid tumor cells. The series can be described thus: MTT cell viability, STM91-01 cells. The format is cell-based, human.
Series [3] has as its system U937 cells. Nature of the series: U937 apoptosis, sub-G0/1 cells by flow cytometry. To be noted: 177 μM, 24 h. The series is classed as cell-based, Human. The method, then:
Apoptosis Assays: U937 cells (5×10^5/ml) were cultured with vehicle (0.5% DMSO) or 177 μM D609 or prodrug 2. After 24 h incubation, the cells were harvested, washed and then fixed in 70% ethanol at 4° C. for 24 h. They were stained with a PI staining solution (PBS containing PI 50 μg/ml; RNase A 100 U/ml; and 0.1 mM EDTA) for 2 h at room temperature before flow cytometric analysis (10,000 events/sample). The percentage of apoptotic cells was determined by quantification of the sub-G0/1 population using a FACS Caliber (Becton Dickinson, San Jose, Calif.).
(In general: A flow cytometer gives signals particle by particle.)

In series [4] the test system is normal human diploid fibroblasts-WI38 cells. Nature of the series: MTT cell viability, WI38 normal fibroblasts. The format is cell-based. To be noted: for LD50: normal cells.
In series [5] the test system is sphingomyelin synthase (SMS). Nature of the series: Cellular SMS activity in U937 cells treated with drug. The series is classed as cell-based, Human. The conditions noted are these: for inhibition of SMS activity: 177 μM, 0.5, 1 and 2 h. On the procedure:
Analysis of sphingomyelin synthase (SMS) activity: U937 cells (2×10^6/ml) were cultured with vehicle (0.5% DMSO) or 177 μM D609 or prodrug 2. After 0.5, 1 and 2 h incubation, the cells were harvested, washed and then homogenized in ice-cold lysis buffer (250 mM sucrose; 5 mM HEPES, pH 7.4; 1 mM phenylmethylsulfonyl fluoride; and 20 μg/ml each of chymostatin, leupeptin, antipain, and pepstatin) by 15 passages through a 27-gauge×0.5-inch needle. The cell lysates were first centrifuged at 1000×g for 10 min at 4° C. to remove all the unbroken cells and nuclei. The resultant supernatants were quantified for protein concentration using the Bio-Rad protein assay reagent (Bio-Rad, Hercules, Calif.) and assayed for SMS activity as follows: aliquots of the cell lysates containing 50 μg protein were preincubated for 10 min at 30° C. in a total volume of 50 μl of incubation buffer (50 mM Tris-HCl, pH 7.4; 25 mM KCl; and 0.5 mM EDTA). The reaction was started by addition of 2 nmol NBD C6-ceramide and 12 nmol PC to give a final volume of 50 μl and incubated for 30 min. The reaction was stopped by addition of 200 μl chloroform/methanol (1:1, v/v); the mixture was vortexed and kept on ice. The chloroform/methanol fraction was isolated, and the lipids were resolved by TLC (silica gel) in chloroform:methanol:15 mM CaCl2 (90:52.5:12) (Luberto and Hannun, 1998; Meng et al., 2004). The formation of NBD-C6-sphingomyelin was quantified by determination of the fluorescent intensity of NBD-C6-sphingomyelin using a phosphoimager. Values for blanks were subtracted from total values of NBD-C6-sphingmyelin to yield the amount of NBD-C6-sphingmyelin produced in each sample.
To validate if inhibition of SMS may mediate D609-induced tumor cell death, the cellular level of SMS activity in U937 cells treated with vehicle or D609 were studied. […] NBD-C6-ceramide and PC were incubated with the cell lysates containing 50 μg proteins for 30 min at 30° C. The formation of NBD-C6-sphingomyelin was analyzed by TLC and quantified by determination of the fluorescent intensity of NBD-C6-sphingomyelin using a phosphoimager. The results, shown in FIGS. 10B-10D, are expressed as percent of the control cultures with vehicle and presented as means±SEM (n=3). […] The levels of ceramide (FIG. 10B) and DAG (FIG. 10C) were analyzed by the DAG kinase assay, normalized to the levels of cellular phospholipid and expressed as pmole/nmole phophate (pi) or the ratio of ceramide and DAG (FIG. 10D). The results represent means±SEM (n=3).

Series [6] deals with U937 cells. The series can be described thus: MTT cell viability, U937 cells. The series is classed as cell-based, Human. The conditions noted are these: for LD50: 48 h. On the procedure:
Cell viability assay: The MTT assay was used to quantify viable U937 cells (Hansen et al., 1989). U937 cells were harvested, washed and resuspended in complete medium at a concentration of 5×10^5 cells per ml. Aliquots (100 μl) of the cell suspension were added to wells of a 96-well microtiter plate with the addition of 100 μl of complete medium (control) or various concentrations of D609 or a D609 prodrug (diluted in complete medium). After 48 h incubation, the plates were centrifuged to remove the supernatants from the culture, and 50 μl of MTT at a concentration of 5 mg/ml in phosphate-buffered saline (PBS) was added to each well. The plates were incubated for 4 h at 37° C. to allow for the formation of a colored formazan. The formazan was solubilized by lysing the cells with 100 μl of lysis buffer containing 20 (w/v) % dodecylsulfate and 50 (v/v) % N,N-dimethyl formamide, pH 4.7. Absorbance of the formazan was measured at 595 nm using a Vmax plate reader (Molecular Devices, Sunnyvale, Calif.). The viability of the cells was expressed as a percent of control calculated by the formula Ad/Ac×100, where Ad and Ac, represent the absorbance of drug-treated and untreated control cells, respectively, and expressed as a percentage of control.
In this study, p-nitrophenyl-phosphorylcholine (pNPP, 40 mM) was incubated with 2 U/ml phospholipase C (Type XI from B. cereus) in the presence or absence of various concentrations of inhibitors for 2 hrs at 37° C. The amount of the cleaved substrate pNPP was quantified by determination of the optical density at 410 nm using an ELISA reader. The results are expressed as percent of vehicle control and presented as means±SEM (n=3) (FIG. 9A). NBD-C6-ceramide and PC were incubated with U937 cell lysates containing 50 μg protein in the presence or absence of various concentrations of inhibitors for 30 min at 30° C. The formation of NBD-C6-sphingomyelin as analyzed by TLC and quantified by determination of the fluorescent intensity of NBD-C6-sphingomyelin using a phosphorimager. The results are expressed as percent of vehicle control (FIG. 9B). […]

As to `CCCC(=O)OCSC(=S)OC1CC2CC1C1CCCC21` (stereo not shown) [Prodrug 2, S-methyleneoxybutyryl D609], the LD50 was 44.26 µM in series [1], 87.10 µM in series [2], 333.43 µM in series [4] and 56.6 µM in the series on U937 cells [6]. The “apoptosis (sub-G0/1 cells)” value in the series on U937 cells [3] was “significantly greater reduction in cell viability and increase in the sub-G0/1 cells than D609-treated cells”. In addition, in series [5], the “inhibition of SMS activity” value is reported as “significantly greater”.

As for `S=C([S-])OC1CC2CC1C1CCCC21.[K+]` (stereo not shown) [Prodrug D609, Tricyclodecan-9-yl-xanthogenate], the LD50 worked out at 63.97 µM in series [1], 545.75 µM in series [2], 267.51 µM in series [4] and 117 µM in the series with U937 cells [6]. Besides, the “apoptosis (sub-G0/1 cells)” value in the series on U937 cells [3] is “capable of inducing apoptosis”. Besides, the cell viability result in series [4] (48 hours) is listed as “relatively resistant”. Also, the “inhibition of SMS activity” value in series [5] was “time-dependent inhibition of SMS activity”. Further, in series [5] (U937 cells cultured 2 hrs), the half-maximal inhibitory concentration (IC50) (as a rule, the concentration that gives 50% inhibition) is roughly 90 µM. For the same compound, in series [5] (U937 cells cultured 2 hrs), the “IC50, SMS activity” value was roughly 23.8 µg/mL. In addition, in the series with U937 cells [6] (48 hours), the “U937 cell death / cell viability” value is given as “induced significant cell death”.
